Measured values taken from ChEMBL document CHEMBL3885861, “Open TG-GATES”.

Species: Rattus norvegicus
Assay: Open TG-GATES - Regimen: Single
Type: toxicity, organism-based, Sprague-Dawley
Set-up: regimen Single, gender Male, age 6 weeks
Conditions: in vivo, po, route gavage; for APTT / Bas / Eos / Fbg / Hb / Ht / Lym / MCH / MCHC / MCV / Mono / Neu / PT / Plat / RBC / Ret / WBC: tissue Blood; for ALP / ALT / AST / BUN / CRE / DBIL / GLC / IP / K / Na / PL / RALB / TBIL / TC / TG / TP / gamma-GTP: tissue Plasma
[1] = 100 mg/kg, 3 h, dose level Middle
[2] = 100 mg/kg, 6 h, dose level Middle
[3] = 100 mg/kg, 9 h, dose level Middle
[4] = 100 mg/kg, 24 h, dose level Middle
[5] = 300 mg/kg, 3 h, dose level High
[6] = 300 mg/kg, 6 h, dose level High
[7] = 300 mg/kg, 9 h, dose level High
[8] = 300 mg/kg, 24 h, dose level High

SMILES: NS(=O)(=O)c1cc(C(=O)O)c(NCc2ccco2)cc1Cl [FUROSEMIDE]
- TERMINAL_BW [1]: 199.5 g
- APTT [1]: 18.8 s
- Bas [1]: 0%
- Eos [1]: 1%
- Fbg [1]: 324.8 mg/dL
- Hb [1]: 14.3 g/dL
- Ht [1]: 42.5%
- Lym [1]: 70.8%
- MCH [1]: 21.4 pg
- MCHC [1]: 33.7%
- MCV [1]: 63.3 fL
- Mono [1]: 5.4%
- Neu [1]: 22%
- PT [1]: 14.9 s
- Plat [1]: 121.3 x10_4/uL
- RBC [1]: 670.4 x10_4/ul
- Ret [1]: 7.9%
- WBC [1]: 73.3 x10_2/uL
- ALP [1]: 1574.2 IU/L
- ALT [1]: 43.6 IU/L
- AST [1]: 77.6 IU/L
- BUN [1]: 19.8 mg/dL
- CRE [1]: 0.3 mg/dL
- DBIL [1]: 0.01 mg/dL
- GLC [1]: 182.2 mg/dL
- IP [1]: 11.3 mg/dL
- K [1]: 3.6 meq/L
- Na [1]: 140.8 meq/L
- PL [1]: 161.6 mg/dL
- RALB [1]: 3 g/dL
- TBIL [1]: 0.064 mg/dL
- TC [1]: 88 mg/dL
- TG [1]: 64.2 mg/dL
- TP [1]: 6.4 g/dL
- gamma-GTP [1]: 1 IU/L
- TERMINAL_BW [2]: 195.4 g
- APTT [2]: 17.3 s
- Bas [2]: 0%
- Eos [2]: 1%
- Fbg [2]: 323.2 mg/dL
- Hb [2]: 14.7 g/dL
- Ht [2]: 43.3%
- Lym [2]: 64.8%
- MCH [2]: 20.8 pg
- MCHC [2]: 33.8%
- MCV [2]: 61.7 fL
- Mono [2]: 4.2%
- Neu [2]: 29.6%
- PT [2]: 14.9 s
- Plat [2]: 125.9 x10_4/uL
- RBC [2]: 703.4 x10_4/ul
- Ret [2]: 7.7%
- WBC [2]: 73.2 x10_2/uL
- ALP [2]: 1685 IU/L
- ALT [2]: 42.6 IU/L
- AST [2]: 84.6 IU/L
- BUN [2]: 21.8 mg/dL
- CRE [2]: 0.2 mg/dL
- DBIL [2]: 0.012 mg/dL
- GLC [2]: 192.6 mg/dL
- IP [2]: 10.4 mg/dL
- K [2]: 3.5 meq/L
- Na [2]: 141.2 meq/L
- PL [2]: 162.8 mg/dL
- RALB [2]: 3 g/dL
- TBIL [2]: 0.068 mg/dL
- TC [2]: 83.6 mg/dL
- TG [2]: 71.8 mg/dL
- TP [2]: 6.4 g/dL
- gamma-GTP [2]: 1 IU/L
- TERMINAL_BW [3]: 193.8 g
- APTT [3]: 18 s
- Bas [3]: 0%
- Eos [3]: 0.8%
- Fbg [3]: 334.8 mg/dL
- Hb [3]: 14.6 g/dL
- Ht [3]: 42.6%
- Lym [3]: 68.6%
- MCH [3]: 20.8 pg
- MCHC [3]: 34.1%
- MCV [3]: 61.1 fL
- Mono [3]: 3.2%
- Neu [3]: 26.8%
- PT [3]: 15 s
- Plat [3]: 133.5 x10_4/uL
- RBC [3]: 697.8 x10_4/ul
- Ret [3]: 7.4%
- WBC [3]: 72.2 x10_2/uL
- ALP [3]: 1341.8 IU/L
- ALT [3]: 36.2 IU/L
- AST [3]: 74.6 IU/L
- BUN [3]: 20.2 mg/dL
- CRE [3]: 0.2 mg/dL
- DBIL [3]: 0.01 mg/dL
- GLC [3]: 173.8 mg/dL
- IP [3]: 11.1 mg/dL
- K [3]: 3.6 meq/L
- Na [3]: 141.4 meq/L
- PL [3]: 149.6 mg/dL
- RALB [3]: 3 g/dL
- TBIL [3]: 0.072 mg/dL
- TC [3]: 88.6 mg/dL
- TG [3]: 36.2 mg/dL
- TP [3]: 6.3 g/dL
- gamma-GTP [3]: 0.8 IU/L
- TERMINAL_BW [4]: 215 g
- APTT [4]: 17.7 s
- Bas [4]: 0%
- Eos [4]: 0.8%
- Fbg [4]: 286.8 mg/dL
- Hb [4]: 13.3 g/dL
- Ht [4]: 39.6%
- Lym [4]: 80.4%
- MCH [4]: 21.9 pg
- MCHC [4]: 33.7%
- MCV [4]: 64.9 fL
- Mono [4]: 2.4%
- Neu [4]: 15%
- PT [4]: 15.7 s
- Plat [4]: 102.2 x10_4/uL
- RBC [4]: 610.4 x10_4/ul
- Ret [4]: 7%
- WBC [4]: 102.9 x10_2/uL
- ALP [4]: 1380 IU/L
- ALT [4]: 42.4 IU/L
- AST [4]: 68.2 IU/L
- BUN [4]: 19.4 mg/dL
- CRE [4]: 0.2 mg/dL
- DBIL [4]: 0.008 mg/dL
- GLC [4]: 189.4 mg/dL
- IP [4]: 8 mg/dL
- K [4]: 3.7 meq/L
- Na [4]: 141.6 meq/L
- PL [4]: 155.2 mg/dL
- RALB [4]: 2.6 g/dL
- TBIL [4]: 0.054 mg/dL
- TC [4]: 81.4 mg/dL
- TG [4]: 56 mg/dL
- TP [4]: 5.7 g/dL
- gamma-GTP [4]: 0.2 IU/L
- TERMINAL_BW [5]: 199.2 g
- APTT [5]: 18.3 s
- Bas [5]: 0%
- Eos [5]: 1%
- Fbg [5]: 357 mg/dL
- Hb [5]: 14.8 g/dL
- Ht [5]: 43.9%
- Lym [5]: 66.6%
- MCH [5]: 21.4 pg
- MCHC [5]: 33.7%
- MCV [5]: 63.6 fL
- Mono [5]: 4.6%
- Neu [5]: 26.4%
- PT [5]: 14.8 s
- Plat [5]: 119.6 x10_4/uL
- RBC [5]: 690.4 x10_4/ul
- Ret [5]: 8.3%
- WBC [5]: 67.2 x10_2/uL
- ALP [5]: 1694 IU/L
- ALT [5]: 47.2 IU/L
- AST [5]: 78.4 IU/L
- BUN [5]: 19.4 mg/dL
- CRE [5]: 0.3 mg/dL
- DBIL [5]: 0.01 mg/dL
- GLC [5]: 193.8 mg/dL
- IP [5]: 12.8 mg/dL
- K [5]: 3.4 meq/L
- Na [5]: 140 meq/L
- PL [5]: 168.2 mg/dL
- RALB [5]: 3.2 g/dL
- TBIL [5]: 0.062 mg/dL
- TC [5]: 91.6 mg/dL
- TG [5]: 69 mg/dL
- TP [5]: 6.9 g/dL
- gamma-GTP [5]: 0.8 IU/L
- TERMINAL_BW [6]: 194.8 g
- APTT [6]: 20.9 s
- Bas [6]: 0%
- Eos [6]: 1%
- Fbg [6]: 381.6 mg/dL
- Hb [6]: 15.3 g/dL
- Ht [6]: 45.3%
- Lym [6]: 62.6%
- MCH [6]: 21.4 pg
- MCHC [6]: 33.8%
- MCV [6]: 63.5 fL
- Mono [6]: 4%
- Neu [6]: 31.8%
- PT [6]: 14.4 s
- Plat [6]: 126.6 x10_4/uL
- RBC [6]: 715 x10_4/ul
- Ret [6]: 7.7%
- WBC [6]: 72.7 x10_2/uL
- ALP [6]: 1419.8 IU/L
- ALT [6]: 39.2 IU/L
- AST [6]: 77.2 IU/L
- BUN [6]: 24.4 mg/dL
- CRE [6]: 0.3 mg/dL
- DBIL [6]: 0.008 mg/dL
- GLC [6]: 190.6 mg/dL
- IP [6]: 11.4 mg/dL
- K [6]: 3.5 meq/L
- Na [6]: 140 meq/L
- PL [6]: 190 mg/dL
- RALB [6]: 3.2 g/dL
- TBIL [6]: 0.068 mg/dL
- TC [6]: 111.4 mg/dL
- TG [6]: 64.2 mg/dL
- TP [6]: 6.9 g/dL
- gamma-GTP [6]: 0.6 IU/L
- TERMINAL_BW [7]: 192 g
- APTT [7]: 19.5 s
- Bas [7]: 0%
- Eos [7]: 0.8%
- Fbg [7]: 382.4 mg/dL
- Hb [7]: 15.3 g/dL
- Ht [7]: 44.8%
- Lym [7]: 66.4%
- MCH [7]: 21.3 pg
- MCHC [7]: 34.1%
- MCV [7]: 62.5 fL
- Mono [7]: 3.4%
- Neu [7]: 28.4%
- PT [7]: 14.4 s
- Plat [7]: 117.9 x10_4/uL
- RBC [7]: 716 x10_4/ul
- Ret [7]: 7.8%
- WBC [7]: 73.1 x10_2/uL
- ALP [7]: 1461.8 IU/L
- ALT [7]: 38 IU/L
- AST [7]: 71.6 IU/L
- BUN [7]: 25.2 mg/dL
- CRE [7]: 0.2 mg/dL
- DBIL [7]: 0.012 mg/dL
- GLC [7]: 186.8 mg/dL
- IP [7]: 10.9 mg/dL
- K [7]: 3.3 meq/L
- Na [7]: 141.6 meq/L
- PL [7]: 176.8 mg/dL
- RALB [7]: 3.2 g/dL
- TBIL [7]: 0.078 mg/dL
- TC [7]: 102 mg/dL
- TG [7]: 33.6 mg/dL
- TP [7]: 6.8 g/dL
- gamma-GTP [7]: 1 IU/L
- TERMINAL_BW [8]: 195.5 g
- APTT [8]: 16.8 s
- Bas [8]: 0.2%
- Eos [8]: 1%
- Fbg [8]: 386.6 mg/dL
- Hb [8]: 14.5 g/dL
- Ht [8]: 41.9%
- Lym [8]: 74%
- MCH [8]: 21.2 pg
- MCHC [8]: 34.5%
- MCV [8]: 61.3 fL
- Mono [8]: 3.4%
- Neu [8]: 20.4%
- PT [8]: 15.2 s
- Plat [8]: 117.8 x10_4/uL
- RBC [8]: 683.8 x10_4/ul
- Ret [8]: 6.7%
- WBC [8]: 95.6 x10_2/uL
- ALP [8]: 1470.8 IU/L
- ALT [8]: 44.4 IU/L
- AST [8]: 72.8 IU/L
- BUN [8]: 36.2 mg/dL
- CRE [8]: 0.3 mg/dL
- DBIL [8]: 0.014 mg/dL
- GLC [8]: 178.4 mg/dL
- IP [8]: 7.8 mg/dL
- K [8]: 3.3 meq/L
- Na [8]: 138.2 meq/L
- PL [8]: 159.2 mg/dL
- RALB [8]: 3 g/dL
- TBIL [8]: 0.064 mg/dL
- TC [8]: 93.2 mg/dL
- TG [8]: 43 mg/dL
- TP [8]: 6.4 g/dL
- gamma-GTP [8]: 0.8 IU/L
